Experimental data published in patent publication US20200291018A1, “TAM KINASE INHIBITORS” (SYROS PHARMACEUTICALS, INC., priority 2017, published 2020).

What was measured:
Format in all cases: biochemical
[1] = biological target: T1, AXL (Homo sapiens, UniProt P30530); test: TR-FRET kinase activity assay, AXL; settings: ATP at Km, 60 minutes
T1 sequence (P30530 26-894): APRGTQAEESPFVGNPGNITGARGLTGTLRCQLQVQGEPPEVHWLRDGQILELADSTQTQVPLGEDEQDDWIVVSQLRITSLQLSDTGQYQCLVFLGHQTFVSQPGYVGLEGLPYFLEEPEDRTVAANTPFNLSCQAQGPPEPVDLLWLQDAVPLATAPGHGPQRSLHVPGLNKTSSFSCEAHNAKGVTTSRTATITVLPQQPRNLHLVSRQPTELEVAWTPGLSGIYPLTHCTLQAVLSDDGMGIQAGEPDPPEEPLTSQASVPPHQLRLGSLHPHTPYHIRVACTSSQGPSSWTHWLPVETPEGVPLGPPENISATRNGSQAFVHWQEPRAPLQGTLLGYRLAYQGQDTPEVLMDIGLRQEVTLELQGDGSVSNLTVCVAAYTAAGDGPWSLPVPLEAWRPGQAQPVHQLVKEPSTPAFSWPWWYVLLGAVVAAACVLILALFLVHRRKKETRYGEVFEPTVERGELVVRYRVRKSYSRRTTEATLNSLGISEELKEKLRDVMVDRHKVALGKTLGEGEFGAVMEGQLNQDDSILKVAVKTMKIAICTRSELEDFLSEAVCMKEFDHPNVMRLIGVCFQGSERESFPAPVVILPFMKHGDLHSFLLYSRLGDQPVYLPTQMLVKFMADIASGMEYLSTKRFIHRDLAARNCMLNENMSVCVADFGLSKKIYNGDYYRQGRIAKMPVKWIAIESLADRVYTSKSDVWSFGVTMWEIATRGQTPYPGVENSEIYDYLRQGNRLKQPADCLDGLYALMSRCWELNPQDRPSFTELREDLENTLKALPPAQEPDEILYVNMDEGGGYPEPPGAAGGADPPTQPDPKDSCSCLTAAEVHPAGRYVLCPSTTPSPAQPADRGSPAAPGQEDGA
Description: (§1) IC50 values for compound inhibition of AXL, FLT3, MERTK and TYRO3 activity were determined using a TR-FRET activity assay. A peptide substrate with a fluorescent label is phosphorylated on a tyrosine by each enzyme, where the now phosphorylated product is bound by a Europium-labeled antibody specific to that phosphorylation site. The proximity between the antibody and the substrate gives a signal known as TR-FRET. As the enzyme is inhibited by compound, less phosphorylated peptide product is made, causing a decrease in overall signal.
(§2) Activity assays were performed in a 384-well, small volume, black microplates in an active enzyme volume of 10 uL and final developed volume of 20 uL. Final assay conditions are 50 mM HEPES pH 7.5, 10 mM MgCl2, 1 mM EGTA, 0.01% Brij 35 and 1 mM DTT, all at RT. Enzyme, substrate-labeled peptide and compound are mixed, and then the reaction is initiated with the addition of ATP at Km concentration for each enzyme. The reaction is allowed to run 60 minutes and then quenched with a 12.5 mM EDTA (ethylenediamine tetraacetic acid) solution. The plate is then developed with the addition of Europium-labeled antibody for a final volume of 20 uL and is then incubated for 30 minutes in darkness. Plates are read in a PHERASTAR® plate reader. Data are analyzed in GraphPad PRISM.

[2] = biological target: T2, FLT3 (Homo sapiens, UniProt P36888); test: TR-FRET kinase activity assay, FLT3; settings: ATP at Km, 60 minutes
T2 sequence (P36888 27-993): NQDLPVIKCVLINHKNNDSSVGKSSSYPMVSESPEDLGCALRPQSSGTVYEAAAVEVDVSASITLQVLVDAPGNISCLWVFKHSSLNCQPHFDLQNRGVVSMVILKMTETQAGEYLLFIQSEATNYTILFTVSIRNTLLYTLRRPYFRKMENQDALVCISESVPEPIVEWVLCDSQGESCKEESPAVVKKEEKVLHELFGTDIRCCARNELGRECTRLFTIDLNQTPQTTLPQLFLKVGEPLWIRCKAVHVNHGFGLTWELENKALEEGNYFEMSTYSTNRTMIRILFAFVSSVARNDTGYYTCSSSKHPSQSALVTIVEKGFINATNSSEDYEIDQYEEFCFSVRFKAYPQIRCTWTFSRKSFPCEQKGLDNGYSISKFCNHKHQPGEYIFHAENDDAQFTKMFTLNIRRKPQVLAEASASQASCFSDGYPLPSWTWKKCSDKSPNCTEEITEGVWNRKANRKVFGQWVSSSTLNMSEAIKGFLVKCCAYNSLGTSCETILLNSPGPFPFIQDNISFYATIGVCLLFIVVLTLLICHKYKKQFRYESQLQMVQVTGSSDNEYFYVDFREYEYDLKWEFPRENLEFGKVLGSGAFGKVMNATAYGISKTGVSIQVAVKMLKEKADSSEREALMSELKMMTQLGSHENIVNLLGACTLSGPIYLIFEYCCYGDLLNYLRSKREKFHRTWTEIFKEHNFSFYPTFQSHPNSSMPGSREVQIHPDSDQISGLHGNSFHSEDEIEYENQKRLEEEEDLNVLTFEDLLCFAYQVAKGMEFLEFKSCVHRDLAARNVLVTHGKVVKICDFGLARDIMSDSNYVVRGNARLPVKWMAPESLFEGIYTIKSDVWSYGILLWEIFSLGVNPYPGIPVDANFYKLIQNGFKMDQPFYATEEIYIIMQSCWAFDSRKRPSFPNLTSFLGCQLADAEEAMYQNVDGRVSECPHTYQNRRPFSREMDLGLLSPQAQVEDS
Description: as §1, §2

[3] = biological target: T3, MERTK (Homo sapiens, UniProt Q12866); test: TR-FRET kinase activity assay, MERTK; settings: for IC50: TR-FRET activity assay, ATP at Km, 60 minutes, read-out: Mer IC50; for Mer/Flt3 ratio (FLT3 IC50/Mer IC50): ratio calculated as FLT3 IC50/Mer IC50
T3 sequence (Q12866 21-999): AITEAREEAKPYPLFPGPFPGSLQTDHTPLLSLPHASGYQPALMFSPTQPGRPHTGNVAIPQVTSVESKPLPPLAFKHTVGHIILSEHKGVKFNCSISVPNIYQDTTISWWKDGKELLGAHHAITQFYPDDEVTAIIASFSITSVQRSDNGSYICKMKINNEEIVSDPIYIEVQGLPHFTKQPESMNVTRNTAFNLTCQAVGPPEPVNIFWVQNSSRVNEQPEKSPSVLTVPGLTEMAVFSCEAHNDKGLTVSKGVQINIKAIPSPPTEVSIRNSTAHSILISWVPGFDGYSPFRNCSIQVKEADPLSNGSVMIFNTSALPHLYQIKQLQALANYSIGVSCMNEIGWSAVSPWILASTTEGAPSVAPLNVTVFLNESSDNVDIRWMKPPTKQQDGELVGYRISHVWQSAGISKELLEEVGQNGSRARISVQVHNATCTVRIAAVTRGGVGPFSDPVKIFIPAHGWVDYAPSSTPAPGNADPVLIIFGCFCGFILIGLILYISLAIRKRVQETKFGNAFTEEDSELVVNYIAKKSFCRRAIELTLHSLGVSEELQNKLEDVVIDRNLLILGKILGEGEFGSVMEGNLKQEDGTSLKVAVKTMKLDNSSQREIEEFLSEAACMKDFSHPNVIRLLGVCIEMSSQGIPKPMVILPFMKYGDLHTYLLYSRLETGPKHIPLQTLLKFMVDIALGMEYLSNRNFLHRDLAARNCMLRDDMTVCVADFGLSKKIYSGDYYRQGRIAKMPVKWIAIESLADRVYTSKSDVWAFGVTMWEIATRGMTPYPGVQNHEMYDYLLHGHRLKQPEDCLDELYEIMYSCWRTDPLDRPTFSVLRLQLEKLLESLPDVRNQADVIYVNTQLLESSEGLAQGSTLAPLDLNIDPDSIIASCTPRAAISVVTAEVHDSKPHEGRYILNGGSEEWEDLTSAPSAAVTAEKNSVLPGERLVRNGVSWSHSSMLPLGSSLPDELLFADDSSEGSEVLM
Description: as §1, §2

**Q.** For `CCCCNc1ncc2c(=O)n(Cc3ccc(F)cc3)cc([C@H]3CC[C@H](O)CC3)c2n1` [Compound 105], which IC50 [1] is on record?
**A.** 100 to 1000 nM

**Q.** And the IC50 [2]?
**A.** 100 to 1000 nM

**Q.** What about the IC50 [3] of the same compound?
**A.** ≤ 100 nM

**Q.** What about the “Mer/Flt3 ratio (FLT3 IC50/Mer IC50)” value [3] of the same compound?
**A.** + (a ratio of >2.0 and <10)

**Q.** Which results are given for `CCCCNc1ncc2c(=O)n(C3CCOCC3)cc([C@H]3CC[C@H](O)CC3)c2n1` [Compound 106, 2-(butylamino)-8-(4-hydroxycyclohexyl)-6-tetrahydropyran-4-yl-pyrido[4,3-d]pyrimidin-5-one]?
**A.** IC50 [1]: 100 to 1000 nM; IC50 [2]: 100 to 1000 nM; IC50 [3]: ≤ 100 nM; Mer/Flt3 ratio (FLT3 IC50/Mer IC50) [3]: + (a ratio of >2.0 and <10)

**Q.** How did the IC50 [1] turn out when `COCC(COC)Nc1ncc2c(=O)n(C3CCNCC3)cc([C@H]3CC[C@H](O)CC3)c2n1` [Compound 110] was run?
**A.** 1000 to 10000 nM

**Q.** What about the IC50 [2] of the same compound?
**A.** 1000 to 10000 nM

**Q.** What about the IC50 [3] of the same compound?
**A.** 1000 to 10000 nM

**Q.** What about the “Mer/Flt3 ratio (FLT3 IC50/Mer IC50)” value [3] of the same compound?
**A.** NS (a ratio of ≤2.0)

**Q.** Which IC50 [1] does the source give for `COCC(C)Nc1ncc2c(=O)n(C3CCNCC3)cc(C3CCC(O)CC3)c2n1` (centres unmarked) [Compound 111, 8-((1r,4r)-4-hydroxycyclohexyl)-2-((1-methoxypropan-2-yl)amino)-6-(piperidin-4-yl)pyrido[4,3-d]pyrimidin-5(6H)-one] here?
**A.** 100 to 1000 nM

**Q.** What about the IC50 [2] of the same compound?
**A.** 1000 to 10000 nM

**Q.** What about the IC50 [3] of the same compound?
**A.** ≤ 100 nM

**Q.** And the “Mer/Flt3 ratio (FLT3 IC50/Mer IC50)” value [3]?
**A.** +++ (a ratio of >100)

**Q.** With `CCCCC[C@H](C)Nc1ncc2c(OC3CCOCC3)ncc([C@H]3CC[C@H](O)CC3)c2n1` [Compound 113] as the compound, how does the IC50 [1] read?
**A.** 100 to 1000 nM

**Q.** And the IC50 [2]?
**A.** 1000 to 10000 nM

**Q.** What about the IC50 [3] of the same compound?
**A.** ≤ 100 nM

**Q.** And the “Mer/Flt3 ratio (FLT3 IC50/Mer IC50)” value [3]?
**A.** +++ (a ratio of >100)

**Q.** How did the IC50 [1] turn out when `CCCCNc1ncc2c(NC3CCN(C)CC3)ncc([C@H]3CC[C@H](O)CC3)c2n1` [Compound 114] was run?
**A.** 100 to 1000 nM

**Q.** And the IC50 [2]?
**A.** ≤ 100 nM

**Q.** What about the IC50 [3] of the same compound?
**A.** ≤ 100 nM

**Q.** And the “Mer/Flt3 ratio (FLT3 IC50/Mer IC50)” value [3]?
**A.** +++ (a ratio of >100)

**Q.** Which results are given for `CCCCNc1ncc2c(Oc3ccc(F)cc3)ncc([C@H]3CC[C@H](O)CC3)c2n1` [Compound 115]?
**A.** IC50 [1]: 1000 to 10000 nM; IC50 [2]: ≤ 100 nM; IC50 [3]: ≤ 100 nM; Mer/Flt3 ratio (FLT3 IC50/Mer IC50) [3]: + (a ratio of >2.0 and <10)

**Q.** `COCC(C)Nc1ncc2c(=O)n(C3CCN(C)CC3)cc([C@H]3CC[C@H](O)CC3)c2n1` (some centres unmarked) [Compound 118] was tested. Which IC50 [1] did it give?
**A.** 100 to 1000 nM

**Q.** And the IC50 [2]?
**A.** 1000 to 10000 nM

**Q.** And the IC50 [3]?
**A.** 100 to 1000 nM

**Q.** What about the “Mer/Flt3 ratio (FLT3 IC50/Mer IC50)” value [3] of the same compound?
**A.** ++ (a ratio of between 10 and 100)

**Q.** `CCCCC[C@H](C)Nc1ncc2c(OC3CCNCC3)ncc([C@H]3CC[C@H](O)CC3)c2n1` [Compound 121] was tested. Which IC50 [1] did it give?
**A.** 100 to 1000 nM

**Q.** What about the IC50 [2] of the same compound?
**A.** 1000 to 10000 nM

**Q.** And the IC50 [3]?
**A.** ≤ 100 nM

**Q.** And the “Mer/Flt3 ratio (FLT3 IC50/Mer IC50)” value [3]?
**A.** +++ (a ratio of >100)

**Q.** Which IC50 [1] does the source give for `CCCCNc1ncc2c(N(C)C)ncc([C@H]3CC[C@H](O)CC3)c2n1` [Compound 123] here?
**A.** 100 to 1000 nM

**Q.** And the IC50 [2]?
**A.** ≤ 100 nM

**Q.** And the IC50 [3]?
**A.** 1000 to 10000 nM

**Q.** And the “Mer/Flt3 ratio (FLT3 IC50/Mer IC50)” value [3]?
**A.** NS (a ratio of ≤2.0)

**Q.** Which results are given for `CC[C@H](C)Nc1ncc2c(OCC34CCC(N)(CC3)CC4)ncc([C@H]3CC[C@H](O)CC3)c2n1` [Compound 252]?
**A.** IC50 [1]: 100 to 1000 nM; IC50 [2]: 1000 to 10000 nM; IC50 [3]: ≤ 100 nM; Mer/Flt3 ratio (FLT3 IC50/Mer IC50) [3]: ++ (a ratio of between 10 and 100)
